How the values were obtained:
[1] = test system: Rat retinal endothelial cells (RRECs); test: In vitro cell monolayer permeability assay; assay type: cell-based; details: HG (30 mM) medium, 100 nM
Description: (§1) Rat retinal endothelial cells (RRECs) were grown for 3, 5, and 7 days in normal (N; 5 mM) or HG (30 mM) medium; in parallel, cells grown in HG medium were exposed for 3, 5, and 7 days to 100 nM Danegaptide (DG), an AAP10 analogue, which stabilizes Cx43 mediated cell coupling. In addition, cells grown in N medium were treated with a Cx43 blocker (negative control) which inhibits GJ coupling, or a positive control AAP10, protecting GJIC. To determine GJIC, scrape load dye transfer (SLDT) assay was performed at the three time points. Similarly, cells were assessed for apoptosis and cell monolayer permeability by differential dye staining assay and in vitro permeability assay, respectively.

[2] = test system: Rat retinal endothelial cells (RRECs); test: Scrape load dye transfer (SLDT) assay of GJIC; assay type: cell-based; details: HG (30 mM) medium, 100 nM, 3, 5 and 7 days
Description: as §1

diabetic rats = test: In vivo permeability (IVP): extravasation of FITC-dextran in retinal capillaries; design: species or system rat; details: for vascular leakage (FIG. 3): diabetic rat retinas; for vascular leakage: 15 weeks
Description: To determine if improvement in Cx43-mediated gap junction intercellular communication (GJIC) prevents retinal vascular cell death and excess retinal vascular permeability, danegaptide was administered intravitreally or via osmotic pumps in rats. 60 male Sprague Dawley rats were randomly assigned into six groups, each consisting of 10 rats: non-diabetic rats, diabetic rats, diabetic rats intravitreally injected with DG (1000 nM concentration), diabetic rats intravitreally injected with sterile water as vehicle, diabetic rats treated systemically with DG (70 mg/mL to achieve 100 nM plasma DG concentration) via osmotic pumps, and diabetic rats treated systemically via osmotic pump with sterile water as control. Diabetes was induced for 15 weeks and at the end of the study all animals were examined and subsequently sacrificed and their retinas were examined for (i) in vivo permeability (IVP), (ii) RTD, and (iii) optical coherence tomography (OCT) for analyses of vascular leakage, AC and PL, and retinal thickness, respectively.
To determine the effect of improved cell-cell coupling on retinal vascular permeability under hyperglycemic stress, extravasation of FITC-dextran was assessed in the retinal capillaries following FITC-dextran tail vein injection performed shortly before animals were sacrificed.

[3] = test system: streptozotocin (STZ)-induced diabetic rats; test: Pilot study, 6 weeks of diabetes: AC and PL in retinal trypsin digests after intravitreal injection; assay type: in vivo, rat; details: n=3
Description: All animal studies were performed according to the ARVO Statement for the Use of Animals in Ophthalmic and Vision Research. In the pilot study to determine the optimal concentration of danegaptide, twelve Sprague-Dawley male rats, each weighing 200 g, were used. Nine of the twelve rats were injected intraperitoneally with streptozotocin (STZ) (55 mg/kg body weight) to induce diabetes for 6 weeks. The remaining 3 animals served as non-diabetic controls. After 6 weeks of diabetes, the animals were killed and retinas were isolated. In the follow-up study to determine the effect of 1000 nM danegaptide on the number of AC and PL, thirty-six Sprague-Dawley male rats, each weighing 200 g, were used. Thirty of the thirty-six rats were injected with STZ to induce diabetes for 15 weeks. The remaining six animals served as non-diabetic controls. […] Blood glucose levels were measured in each animal 2-3 times weekly and at the time of death. […]
RTDs were stained with periodic acid-Schiff and hematoxylin as described in Bobbie et al. (Reduced connexin 43 expression and its effect on the development of vascular lesions in retinas of diabetic mice. Investigative ophthalmology & visual science 2010; 51:3758-3763). Ten representative fields were imaged using a digital camera attached to a microscope and the images were analyzed for AC and PL. […]

[4] = test system: Rat retinal endothelial cells (RRECs); test: Apoptosis by differential dye staining assay; assay type: cell-based; details: HG (30 mM) medium, 100 nM, 3, 5 and 7 days
Description: as §1

[5] = test system: Primary retinal endothelial cells from rats; test: Transcriptomic effects in an in vitro diabetic retinopathy model; assay type: cell-based, rat; details: HG medium
Description: The transcriptomic effects of danegaptide in an in vitro diabetic retinopathy model were investigated to 1) reveal transcriptomic changes in diabetic-like conditions with or without danegaptide and 2) associate functional effects previously observed to transcriptomic modifications and 3) identify pathways involved in danegaptide effects on relevant cells under diabetes-like conditions. Primary retinal endothelial cells from rats were plated for in vitro experiments under four experiments conditions, Normal Glucose medium (NG), High Glucose medium (HG), High Glucose medium+Danegaptide 100 nM (HG_DG100) and High Glucose medium+Danegaptide 1000 nM (HG_DG1000). The samples were assessed at four time points (4 hours after plating, 1 day after plating, 3 days after plating and 5 days after plating).

[6] = test system: streptozotocin (STZ)-induced diabetic rats; test: Follow-up study, 15 weeks of diabetes: AC and PL in retinal trypsin digests, intravitreal or osmotic pump delivery; assay type: in vivo, rat; details: for number of PL / development of AC: diabetic rats, 15 weeks; for number of AC (FIG. 2) / number of PL (FIG. 2): diabetic rat retinas
Description: All animal studies were performed according to the ARVO Statement for the Use of Animals in Ophthalmic and Vision Research. In the pilot study to determine the optimal concentration of danegaptide, twelve Sprague-Dawley male rats, each weighing 200 g, were used. Nine of the twelve rats were injected intraperitoneally with streptozotocin (STZ) (55 mg/kg body weight) to induce diabetes for 6 weeks. The remaining 3 animals served as non-diabetic controls. After 6 weeks of diabetes, the animals were killed and retinas were isolated. In the follow-up study to determine the effect of 1000 nM danegaptide on the number of AC and PL, thirty-six Sprague-Dawley male rats, each weighing 200 g, were used. Thirty of the thirty-six rats were injected with STZ to induce diabetes for 15 weeks. The remaining six animals served as non-diabetic controls. After 15 weeks of diabetes, the animals were killed and retinas were isolated. The glucose concentration in blood and urine were checked after 2 or 3 days after STZ injection to confirm diabetes status in the animals. Blood glucose levels were measured in each animal 2-3 times weekly and at the time of death. The diabetic group represented rats with blood glucose levels of >350 mg/dL. The diabetic rats received NPH insulin injection as needed to maintain blood glucose levels.
The enucleated eyes were placed in 10% formalin for at least 24 hrs. The eyes were then cut in half with a razor blade, and the retinas were isolated and placed into 0.5M glycine for 24-48 hrs. RTD was performed as described in Kuwabara & Cogan (Studies of retinal vascular patterns. I. Normal architecture. Archives of ophthalmology 1960; 64:904-911). Each retina went through a series of washes with 3% trypsin, and the non-vascular mass of the retina was removed. The retinal capillary network was then isolated and mounted onto a silane-coated slide.
RTDs were stained with periodic acid-Schiff and hematoxylin as described in Bobbie et al. (Reduced connexin 43 expression and its effect on the development of vascular lesions in retinas of diabetic mice. Investigative ophthalmology & visual science 2010; 51:3758-3763). Ten representative fields were imaged using a digital camera attached to a microscope and the images were analyzed for AC and PL. Apoptotic pericytes were identified as PL based on prominent histological characteristics, including basement membrane protrusion as empty shell. Capillaries devoid of both pericytes and endothelial cells were considered as AC.
To determine the optimal concentration of danegaptide (DG), a Cx43 gap junction coupler, two concentrations (200 nM or 1000 nM) were tested via intravitreal injections in streptozotocin (STZ)-induced diabetic rats. Diabetes was induced via STZ for 6 weeks and at the end of the study, eyes were enucleated, and retinas subjected to retinal trypsin digestion (RTD) for isolation of capillary networks and stained with Hematoxylin and Periodic Acid Schiff's (PAS) reagent to analyze the number of acellular capillaries (AC) and pericyte loss (PL). Based on this pilot study, 1000 nM danegaptide was injected intravitreally in the follow-up study to determine the effect of improved cell coupling on retinal vascular cell death. Additionally, danegaptide was administered systemically using osmotic pumps. The number of rats used in this study was at least 6 per group. Overall, rats were divided into 6 groups: wild type (WT) control rats, STZ-induced diabetic rats, diabetic rats intravitreally injected with danegaptide, diabetic rats intravitreally injected with water, diabetic rats systemically delivered with danegaptide, and diabetic rats systemically delivered with water. Diabetes was induced via STZ for 15 weeks and at the end of the study, retinas were isolated and subjected to RTD for analyses of AC and PL. […]

[7] = osmotic pumps (OP) vs water via OP
[8] = intravitreal (IV) injection vs IV injection of water

NCC(=O)N1C[C@H](NC(=O)c2ccccc2)C[C@H]1C(=O)O [danegaptide, (2S,4R)-1-(2-aminoacetyl)-4-benzoylamino-pyrrolidine-2-carboxylic acid]
cell monolayer permeability [1]: significantly decreased by day 5 | GJIC (SLDT assay) [2]: preserved GJIC | vascular leakage (FIG. 3) (diabetic rats; IV injection vs IV injection of water): significantly reduced | difference in vascular leakage between intravitreal and systemic treatment (diabetic rats; diabetic rats): no significant difference | vascular leakage (diabetic rats; intravitreal DG 1000 nM, diabetic rats): 149±22 % of control | vascular leakage (FIG. 3) (diabetic rats; [7]): significantly reduced | vascular leakage (diabetic rats; systemic DG via osmotic pump (100 nM plasma target), diabetic rats): 143±14 % of control | number of PL (pericyte loss) ([3]; intravitreal injection 1000 nM, vs untreated diabetic rat retinas): significantly reduced | number of AC (acellular capillaries) ([3]; intravitreal injection 200 or 1000 nM): decreased in the danegaptide treated groups but fell short of statistical significance | HG-induced apoptosis [4]: rescued cells from HG-induced apoptosis at all three time points | Fscn3 expression (downregulated in HG versus NG) [5]: reverse by danegaptide | expression of genes differentially expressed in high glucose vs normal glucose ([5]; 100 or 1000 nM, 4 h and 1 d): reverses expression of some genes | Tpcn2 expression (downregulated in HG versus NG) ([5]; 4 h): reversed by danegaptide | Cacybp expression (downregulated in HG versus NG) ([5]; 1 d): reversed by danegaptide | expression of transcripts Dnm1I, Nucb2, Trmt10a (down-regulated under HG) ([5]; day 1): generally increased the expression | number of PL ([6]; intravitreal 1000 nM): 112±62 % of control | number of AC (FIG. 2) [6, 8]: significantly reduced | number of PL (FIG. 2) [6, 8]: significantly reduced | development of AC ([6]; intravitreal injections 1000 nM): 134±28 % of control | number of AC (FIG. 2) [6, 7]: significantly reduced | number of PL (FIG. 2) [6, 7]: significantly reduced | development of AC ([6]; systemic (osmotic pump)): 133±37 % of control | number of PL ([6]; systemic (osmotic pump)): 103±65 % of control

Reference: patent US11324799B2, “Gap junction intercellular communication modulators and their use for the treatment of diabetic eye disease” (ZEALAND PHARMA A/S, priority 2017, dated 2022)
